Values of other authors in patent US20240130937A1, “ORAL CARE COMPOSITION” (LACER, S.A., priority 2019, published 2024).

Conditions: at 25° C.

[Cl-].[Cl-].[Zn+2] [zinc chloride]
solubility in water: 4320 mg/mL
